Experimental data as given in ChEMBL document CHEMBL4390671, “FragLites-Minimal, Halogenated Fragments Displaying Pharmacophore Doublets. An Efficient Approach to Druggability Assessment and Hit Generation” (J Med Chem, 2019).
Active and inactive are the calls of the source. No cut-off for these calls is given here.

Assays:
[1] = target: T1, Cyclin-dependent kinase 2 (Homo sapiens, UniProt P24941); test: Binding affinity to full-length human CDK2 expressed in Escherichia coli BL21 (DE3) pLysS cells by isothermal titration calorimetry
[2] = target: T1, Cyclin-dependent kinase 2; test: Binding affinity to full-length human CDK2 expressed in Escherichia coli BL21 (DE3) pLysS cells at 5 mM by isothermal titration calorimetry
[3] = target: T1, Cyclin-dependent kinase 2; test: Binding affinity to full-length human CDK2 expressed in Escherichia coli BL21 (DE3) pLysS cells at 1 to 5 mM by isothermal titration calorimetry

Row | SMILES | Kd [1] | Activity [2] | other results
1 | Nc1nc(-c2cccc(CC(=O)O)c2)c2nc[nH]c2n1 | 50 µM | – | Activity [1]: Dose-dependent effect
2 | Brc1cn[nH]c1 | – | inactive | –
3 | NS(=O)(=O)c1ccc(Br)cc1 | – | inactive | –
4 | Nc1nc(I)c2nc[nH]c2n1 | 350 µM | – | –
5 | Nc1nc(Oc2cccc(CC(=O)O)c2)c2nc[nH]c2n1 | – | – | Activity [3]: inactive
